In patent US4416871A, “Inhibition by peptides of tolerance to and physical dependence on morphine” (The United States of America as represented by the …, priority 1982, dated 1983):
“Also recorded” adds a separate entry of the source. Non-standard residues stand in square brackets, D forms with d. Residues, ends and D or L forms follow the SMILES beside them. No end group written: not given here. *: point of attachment. pGlu = O=C1CC[C@@H](C(=O)O)N1; Cbz = O=C(OCc1ccccc1)*

How the values were obtained:
[1] = literature, Life Sci., 19, 1331-1340; cited from earlier work
morphine-dependent mice [2] = experiment: Naloxone-precipitated withdrawal: body temperature and withdrawal signs; assay type: in vivo; settings: for Withdrawal, % of control (jumping, shakes, diarrhea) / Δt, °C. (difference in body temperature just prior to naloxone and 30 min. thereafter): Table II, peptide 50 μg per mouse, naloxone 0.1 mg/kg; for Δt, °C. (difference in body temperature just prior to naloxone and 30 min. thereafter): mean ± SD; for Withdrawal, % of control / Δt, °C. / lowest dose still effective in blocking physical dependence on morphine: Table III; for Withdrawal, % of control / Δt, °C.: dose 50 μg; for lowest dose still effective in blocking physical dependence on morphine: dose-response experiments; for ability to block development of physical dependence on morphine: naloxone-precipitated withdrawal, Tables II and III
Protocol: The mice were randomly divided into two groups. One received SC injections of water (vehicle) while the other received the peptide under investigation (50 μg/mouse on day one). Two hours later the mice were further subdivided and each subgroup was implanted with placebo or morphine pellets. The injections of vehicle and peptide were repeated 24 and 48 hours after the first injection in their respective groups. Morphine pellets containing 75 mg of morphine free base were implanted subcutaneously (SC) between 10-11 A.M. and were removed 3 days later at the same time. The control animals were implanted with placebo pellets. Body temperature and weight were measured daily at 11 A.M. Temperature was measured using a lubricated rectal probe inserted 2.5 cm into the rectum and measured with a telethermometer (Model 43TA Yellow Springs Instrument Co., Yellow Springs, Ohio).
To determine the effects of peptide treatment on the development of physical dependence, the abstinence syndrome was precipitated using the morphine antagonist naloxone (Endo Laboratories Inc., N.Y.) at the appropriate dose (0.1, 0.25, or 0.50 mg/kg) injected intraperitoneally (IP) one hour following removal of morphine and placebo pellets. Pellet removal was performed 24 hours after the last peptide injection. These mice were monitored for changes in body temperature (see above) and body weight at 15 min. intervals for one hour after the naloxone injection. Effects of removing the pellets (withdrawing morphine) were also assessed by utilizing body temperature and weight as physical dependence parameters; however, these measurements were made at 2 hour intervals for 10 hours after the removal of the pellets. Placebo implanted mice were treated in the same manner as the morphine pellet implanted mice.

morphine-dependent mice [3] = experiment: as above; assay type: in vivo; settings: Table III

Molecule	Withdrawal, % of control (jumping, shakes, diarrhea) (morphine-dependent mice [2]) [%]	Δt, °C. (difference in body temperature just prior to naloxone and 30 min. thereafter) (morphine-dependent mice [2])	other results
8-arginine vasotocin			relative potency in facilitating development of physical dependence on and tolerance to morphine [1]: more effective than 8-arginine vasopressin
CC(C)C[C@@H]1NC(=O)[C@H](C)NC1=O [Cyclo(Leu--Ala)]	100	-1.80 ± 0.96 °C	
CC(C)C[C@@H]1NC(=O)CNC1=O [Cyclo(Leu--Gly), cyclo(leucyl-glycine)]	21	-0.02 ± 0.83 °C	relative potency in facilitating development of physical dependence on and tolerance to morphine [1]: as effective as oxytocin; Withdrawal, % of control (morphine-dependent mice [2]): 18%; Δt, °C. (morphine-dependent mice [2]): -0.19 ± 0.58 °C; lowest dose still effective in blocking physical dependence on morphine (morphine-dependent mice [2]): ≤ 0.05 μg per mouse; ability to block development of physical dependence on morphine (morphine-dependent mice [2]): showed significant activity; also recorded: most potent peptides tested; Withdrawal, % of control (morphine-dependent mice [3]; dose 0.05 μg): 20%; Δt, °C. (morphine-dependent mice [3]; dose 0.05 μg): +0.27 ± 0.70 °C; Withdrawal, % of control (morphine-dependent mice [3]; dose 0.5 μg): 0%; Δt, °C. (morphine-dependent mice [3]; dose 0.5 μg): +0.30 ± 0.29 °C; Withdrawal, % of control (morphine-dependent mice [3]; dose 5 μg): 0%; Δt, °C. (morphine-dependent mice [3]; dose 5 μg): +0.47 ± 0.32 °C
CC(C)C[C@H]1NC(=O)[C@@H]2CCCN2C1=O [Cyclo(Pro--D-Leu)]	40	-0.24 ± 1.06 °C	
O=C1N[C@@H](Cc2ccccc2)C(=O)N2CCC[C@@H]12 [Cyclo(Pro--Phe)]	20	-0.13 ± 0.55 °C	ability to block development of physical dependence on morphine (morphine-dependent mice [2]): showed significant activity
CC(C)C[C@H](NC(=O)[C@@H]1CCCN1C(=O)CNC(=O)OCc1ccccc1)C(=O)NCC(=O)O [Z-Gly--Pro--Leu--Gly--COOH] (Cbz-GPLG-OH)	22	-0.07 ± 0.72 °C	
CC(C)C[C@H](NC(=O)OCc1ccccc1)C(=O)NCC(N)=O [Z-Leu--Gly--NH2] (Cbz-Leu-Gly-NH2)	70	-0.75 ± 0.72 °C	
CC(C)C[C@H](NC(=O)[C@@H]1CCCN1C(=O)OCc1ccccc1)C(=O)NCC(=O)O [Z-Pro--Leu--Gly--COOH] (Cbz-Pro-Leu-Gly-OH)	100	-1.20 ± 0.39 °C	
CC(C)C[C@H](NC(=O)[C@@H]1CCCN1C(=O)OCc1ccccc1)C(N)=O [Z-Pro--Leu--NH2] (Cbz-Pro-Leu-NH2)	100	-0.95 ± 0.21 °C	
CC(C)C[C@H](NC(=O)[C@@H]1CCC(=O)N1)C(=O)NCC(N)=O [[Glu--Leu--Gly--NH2] ([pGlu]-Leu-Gly-NH2)	44	-0.27 ± 0.72 °C	
CC[C@H](C)[C@@H]1NC(=O)[C@H](Cc2ccc(O)cc2)NC(=O)[C@@H](N)CSSC[C@@H](C(=O)N2CCC[C@H]2C(=O)N[C@@H](CC(C)C)C(=O)NCC(N)=O)NC(=O)[C@H](CC(N)=O)NC(=O)[C@H](CCC(N)=O)NC1=O [oxytocin]			relative potency in facilitating development of physical dependence on and tolerance to morphine [1]: more effective than 8-arginine vasopressin
Cbz-Ala-Pro	100	-1.20 ± 0.21 °C	
Cbz-Pro-Ala	63	-0.74 ± 0.94 °C	
Cbz-Pro-Gln	0	+0.08 ± 0.33 °C	
Cbz-Pro-Glu	45	-0.63 ± 0.88 °C	
Cbz-Pro-Gly	69	-0.79 ± 0.78 °C	
Cbz-Pro-Ile	78	-1.19 ± 0.91 °C	
Cbz-Pro-Leu	22	+0.08 ± 0.93 °C	Withdrawal, % of control (morphine-dependent mice [2]): 18%; Δt, °C. (morphine-dependent mice [2]): +0.08 ± 0.93 °C; lowest dose still effective in blocking physical dependence on morphine (morphine-dependent mice [2]): 5 μg per mouse; ability to block development of physical dependence on morphine (morphine-dependent mice [2]): exhibited activity; Withdrawal, % of control (morphine-dependent mice [3]; dose 0.5 μg): 100%; Δt, °C. (morphine-dependent mice [3]; dose 0.5 μg): -1.17 ± 0.17 °C; Withdrawal, % of control (morphine-dependent mice [3]; dose 5 μg): 0%; Δt, °C. (morphine-dependent mice [3]; dose 5 μg): +0.33 ± 0.26 °C
Cbz-Pro-Met	0	+0.17 ± 0.23 °C	
Cbz-Pro-Phe	89	-1.03 ± 0.55 °C	Withdrawal, % of control (morphine-dependent mice [2]): 99%; Δt, °C. (morphine-dependent mice [2]): -1.03 ± 0.55 °C; Withdrawal, % of control (morphine-dependent mice [3]; dose 0.05 μg): 100%; Δt, °C. (morphine-dependent mice [3]; dose 0.05 μg): -1.60 ± 0.69 °C; Withdrawal, % of control (morphine-dependent mice [3]; dose 0.5 μg): 100%; Δt, °C. (morphine-dependent mice [3]; dose 0.5 μg): -0.69 ± 0.22 °C; Withdrawal, % of control (morphine-dependent mice [3]; dose 5 μg): 100%; Δt, °C. (morphine-dependent mice [3]; dose 5 μg): -0.69 ± 0.24 °C
Cbz-Pro-Ser	39	-0.29 ± 0.73 °C	
Cbz-Pro-Tyr	0	+0.13 ± 0.31 °C	
Cbz-Pro-Val	63	-0.44 ± 0.48 °C	
Cbz-[dP]-Leu	14	+0.17 ± 0.71 °C	ability to block development of physical dependence on morphine (morphine-dependent mice [2]): exhibited activity
Z-D-Pro--D-Leu	0	+0.10 ± 0.56 °C	ability to block development of physical dependence on morphine (morphine-dependent mice [2]): exhibited activity
Z-Pro--D-Ala--DCHA	50	-0.55 ± 0.90 °C	
Z-Pro--Leu--Gly--N(CH3)2	100	-0.47 ± 0.15 °C	
Z-Pro--ΔPhe	22	-0.36 ± 0.58 °C	
